This note sets out measurements from ChEMBL document CHEMBL5143608, “Peptide-based long-acting co-agonists of GLP-1 and cholecystokinin 1 receptors as novel anti-diabesity agents” (Eur J Med Chem, 2022).

Activity calls are given as the source filed them. The calls are words filed in the database; no cut-off is given here.

A short description of data set [1]: MRT in Sprague-Dawley rat at 25 nmol/kg, sc by LC-MS/MS analysis. The data set is classed as ADME, organism-based. Conditions: in vivo.
Data set [2] has as its target T1, Glucagon-like peptide 1 receptor (Homo sapiens, UniProt P43220). The experiment in a line: Agonist activity at human GLP-1R expressed in HEK293 cells assessed as cAMP release incubated for 20 min by HTRF analysis. The format is functional, cell-based. The following applies: hek293.
Data set [3] concerns Mus musculus. The experiment in a line: Anti-diabesity activity against db/db mouse assessed as reduction in fasting blood glucose level at 25 nmol/kg, sc administered every 2 days for 6 weeks followed by saline treatment for 6 weeks and measured during first 6 weeks. The data set is classed as functional, organism-based.
The target in data set [4] is T2, Cholecystokinin receptor type A (Homo sapiens, UniProt P32238).
T2 sequence (P32238 whole entry): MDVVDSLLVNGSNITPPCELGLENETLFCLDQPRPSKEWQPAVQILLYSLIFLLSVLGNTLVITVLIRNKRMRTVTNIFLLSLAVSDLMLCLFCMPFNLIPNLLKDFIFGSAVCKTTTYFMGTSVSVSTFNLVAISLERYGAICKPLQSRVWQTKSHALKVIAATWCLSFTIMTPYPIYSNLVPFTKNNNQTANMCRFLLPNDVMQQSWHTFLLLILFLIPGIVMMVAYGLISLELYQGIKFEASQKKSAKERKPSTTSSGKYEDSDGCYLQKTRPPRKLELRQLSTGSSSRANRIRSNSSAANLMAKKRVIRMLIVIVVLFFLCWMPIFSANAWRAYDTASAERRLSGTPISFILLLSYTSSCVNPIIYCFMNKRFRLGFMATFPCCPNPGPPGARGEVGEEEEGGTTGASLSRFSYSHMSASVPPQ
The experiment in a line: Agonist activity at human CCK1R expressed in HEK293 cells assessed as ERK1/2 phosphorylation incubated for 5 mins by AlphaScreen assay. The data set is classed as functional, cell-based. The following applies: hek293.

In data set [5] the test system is Mus musculus. In words: Anti-diabesity activity against DIO C57BL/6 mouse assessed as reduction in cumulative food intake at 25 nmol/kg, sc administered every 2 days for 3 weeks. The format is functional, organism-based. Conditions: time 21.0 day.
Data set [6] deals with T1, Glucagon-like peptide 1 receptor. The experiment in a line: Agonist activity at human GLP-1R expressed in CHO cells assessed as cAMP release incubated for 20 min by HTRF analysis. The format is functional, cell-based.
The subject of data set [7] is Mus musculus. The experiment in a line: Anti-diabesity activity against db/db mouse assessed as increase in IOD of insulin in pancreas at 25 nmol/kg, sc administered every 2 days for 12 weeks by immunohistochemistry. The format is functional, organism-based.
A short description of data set [8]: Half life in Sprague-Dawley rat at 25 nmol/kg, sc by LC-MS/MS analysis. The format is ADME, organism-based. Conditions: in vivo.
In data set [9] the test system is Mus musculus. The experiment in a line: Anti-diabesity activity against DIO C57BL/6 mouse assessed as increase in adiponectin level in plasma at 25 nmol/kg, sc administered every 2 days for 3 weeks by ELISA. The data set is classed as functional, organism-based. Conditions: time 21.0 day.
The subject of data set [10] is Mus musculus. In words: Anti-diabesity activity against db/db mouse assessed as reduction in body weight at 25 nmol/kg, sc administered every 2 days for 3 weeks. The format is functional, organism-based. The following applies: time 21.0 day.
Data set [11] has as its system Mus musculus. In words: Anti-diabesity activity against DIO C57BL/6 mouse assessed as reduction in triglycerides level in serum at 25 nmol/kg, sc administered every 2 days for 3 weeks. The data set is classed as functional, organism-based. Conditions: time 21.0 day.
Data set [12] deals with Mus musculus. In words: Anti-diabesity activity against db/db mouse assessed as reduction in fasting blood glucose level at 25 nmol/kg, sc administered every 2 days for 12 weeks. The data set is classed as functional, organism-based.
Data set [13] relates to Mus musculus. The experiment in a line: Anti-diabesity activity in DIO C57BL/6 mouse assessed as reduction in body weight at 10 nmol/kg, sc administered every 2 days for 10 days. Conditions: C57BL/6, 240 h, time 10 day. The format is functional.
The subject of data set [14] is Mus musculus. In words: Insulinotropic activity in db/db mouse assessed as elevation of plasma insulin level at 25 nmol/kg, ip administered 30 min before oral glucose administration and measured upto 60 mins by ELISA. The format is functional, organism-based. Conditions: time <= 90.0 min.
The test system of data set [15] is Mus musculus. The experiment in a line: Hypoglycemic activity in ICR mouse assessed as improvement in glucose tolerance at 25 nmol/kg, ip administered 30 min before oral glucose administration and measured upto 120 mins by OGTT. The data set is classed as functional, organism-based.

T1 sequence (P43220 whole entry): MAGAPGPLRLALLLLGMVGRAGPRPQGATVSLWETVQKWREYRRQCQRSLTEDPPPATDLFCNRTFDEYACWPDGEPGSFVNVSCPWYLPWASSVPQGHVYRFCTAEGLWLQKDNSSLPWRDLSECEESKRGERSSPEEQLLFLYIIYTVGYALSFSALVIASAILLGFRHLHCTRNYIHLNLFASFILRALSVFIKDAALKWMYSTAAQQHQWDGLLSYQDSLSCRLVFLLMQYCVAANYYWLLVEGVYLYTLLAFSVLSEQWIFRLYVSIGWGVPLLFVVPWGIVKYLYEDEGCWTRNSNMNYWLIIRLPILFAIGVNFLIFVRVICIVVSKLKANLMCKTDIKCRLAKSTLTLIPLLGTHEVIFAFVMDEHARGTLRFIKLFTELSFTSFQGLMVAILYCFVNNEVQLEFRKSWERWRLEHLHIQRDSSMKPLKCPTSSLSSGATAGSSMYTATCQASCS

In data set [1], `CCCC[C@H](NC(=O)[C@H](Cc1ccc(CS(=O)(=O)O)cc1)NC(=O)[C@H](CC(=O)O)NC(=O)COCCOCCNC(=O)COCCOCCNC(=O)[C@H](CCCCN)NC(=O)CNC(=O)[C@H](CCCCN)NC(=O)[C@@H](NC(=O)[C@H](CC(C)C)NC(=O)[C@H](Cc1c[nH]c2ccccc12)NC(=O)[C@H](CCC(=O)O)NC(=O)[C@@H](NC(=O)[C@H](Cc1ccccc1)NC(=O)[C@H](CCC(=O)O)NC(=O)[C@H](CCCCNC(=O)COCCOCCNC(=O)COCCOCCNC(=O)CC[C@H](NC(=O)CCCCCCCCCCCCCCCCC(=O)O)C(=O)O)NC(=O)[C@H](C)NC(=O)[C@H](C)NC(=O)[C@H](CCC(=O)O)NC(=O)[C@H](CCC(=O)O)NC(=O)[C@H](CCC(=O)O)NC(=O)[C@H](CC(C)C)NC(=O)[C@@H](NC(=O)[C@H](CCC(=O)O)NC(=O)[C@@H](NC(=O)[C@@H](NC(=O)[C@H](CC(=O)O)NC(=O)[C@H](CC(N)=O)NC(=O)[C@@H](NC(=O)[C@H](Cc1ccc(O)cc1)NC(=O)[C@@H](NC(=O)CNC(=O)[C@H](CCC(=O)O)NC(=O)C(C)(C)NC(=O)[C@@H](N)Cc1cnc[nH]1)[C@@H](C)O)[C@@H](C)O)C(C)C)[C@@H](C)O)[C@@H](C)O)[C@@H](C)CC)[C@@H](C)CC)C(=O)NCC(=O)N[C@@H](Cc1c[nH]c2ccccc12)C(=O)N[C@@H](CCCC)C(=O)N(C)[C@H](CC(=O)O)C(=O)N(C)[C@@H](Cc1ccccc1)C(N)=O` had an MRT of 25.9 h. Further, the EC50 in data set [2] amounted to 0.074 nM; in data set [4], 0.83 nM; in data set [6] it was 0.057 nM. Moreover, the outcome with Mus musculus [3], with Mus musculus [5], in the data set on Mus musculus [7], with Mus musculus [9], in the data set with Mus musculus [10] and in the data set on Mus musculus [11] was Active. Further, the result in the data set on Mus musculus [12] and in the data set with Mus musculus [14] was Active. The same compound showed a half-life in data set [8] of 16.8 h. Further, in the data set on Mus musculus [13], the inhibition in vivo at 0.01 µmol/kg was 16.2%.

Compound `CCCC[C@H](NC(=O)[C@H](Cc1ccc(CS(=O)(=O)O)cc1)NC(=O)[C@H](CC(=O)O)NC(=O)COCCOCCNC(=O)COCCOCCNC(=O)[C@H](CCCNC(=N)N)NC(=O)CNC(=O)[C@H](CCCCN)NC(=O)[C@@H](NC(=O)[C@H](CC(C)C)NC(=O)[C@H](Cc1c[nH]c2ccccc12)NC(=O)[C@H](C)NC(=O)[C@@H](NC(=O)[C@H](Cc1ccccc1)NC(=O)[C@H](CCC(=O)O)NC(=O)[C@H](CCCCNC(=O)COCCOCCNC(=O)COCCOCCNC(=O)CC[C@H](NC(=O)CCCCCCCCCCCCCCCCC(=O)O)C(=O)O)NC(=O)[C@H](C)NC(=O)[C@H](C)NC(=O)[C@H](CCC(N)=O)NC(=O)CNC(=O)[C@H](CCC(=O)O)NC(=O)[C@H](CC(C)C)NC(=O)[C@H](Cc1ccc(O)cc1)NC(=O)[C@H](CO)NC(=O)[C@H](CO)NC(=O)[C@@H](NC(=O)[C@H](CC(=O)O)NC(=O)[C@H](CO)NC(=O)[C@@H](NC(=O)[C@H](Cc1ccccc1)NC(=O)[C@@H](NC(=O)CNC(=O)[C@H](CCC(=O)O)NC(=O)[C@H](C)NC(=O)[C@@H](N)Cc1cnc[nH]1)[C@@H](C)O)[C@@H](C)O)C(C)C)[C@@H](C)CC)C(C)C)C(=O)NCC(=O)N[C@@H](Cc1c[nH]c2ccccc12)C(=O)N[C@@H](CCCC)C(=O)N(C)[C@H](CC(=O)O)C(=O)N(C)[C@@H](Cc1ccccc1)C(N)=O` showed an MRT in data set [1] of 14.7 h. The outcome with Mus musculus [3], with Mus musculus [5], in the data set on Mus musculus [7], in the data set with Mus musculus [9], with Mus musculus [10] and with Mus musculus [11] was Active. Also, the result with Mus musculus [12], with Mus musculus [15] and with Mus musculus [14] was Active. Moreover, in data set [4], the EC50 is 1.25 nM. The same compound had a half-life in data set [8] of 9.2 h. In addition, the inhibition in vivo at 0.01 µmol/kg with Mus musculus [13] was found to be 14.5%.
